Measured values: US11091476B2, “Protein kinase inhibitors, preparation method and medical use thereof” (Gan & Lee Pharmaceuticals, priority 2015, dated 2021)
pIC50: −log10 of the molar value.

What was measured:
CDK4/CyclinE1 = CDK4/CyclinE1 (Homo sapiens, UniProt P11802); conditions: read-out: CDK4/CyclinE1 IC50
Protocol: Measurement of CDK kinase inhibitory activity of the compounds of this disclosure.
In vitro inhibitory effect of the compounds of the disclosure on CDK (CDK1, CDK4 and CDK6) kinase activity was tested by the following method.
1.1 Instrument and Kit Information
1.2 Experimental Preparation • 1.2.1 Preparation of Kinase Reaction Buffer I: The 5×Reaction Buffer A (Promega; V307A-C) provided in the kit was mixed and diluted with MILLI-Q® H2O and 0.1 M DTT (dithiothreitol) to give 4× kinase buffer, and then MILLI-Q® H2O was further added to finally formulate the solution into 1× Kinase buffer.
The final concentration was 50 μM. • b. 40 μl of kinase reaction buffer II was added into B2 to B10 of a 96-well plate, and 50 μl of the above solution was added into B1; • c. […]
1.3 Experimental process: • 1.3.1: 2 μl of compound solutions of various concentrations were taken, added to a 384-well plate, and centrifuged 3 minutes; • 1.3.2: 4 μl of kinase solution was added to each well, centrifuged at 5000 rpm and 18° C. for 10 minutes, and shaken on a plate shaker for 10 minutes; • 1.3.3: 4 μl of mixed solution of substrate and ATP was added to each well, centrifuged at 5000 rpm and 18° C. for 10 minutes, and shaken on a plate shaker at 37° C. for 90 minutes; • 1.3.4: The 384-well plate was taken out, and allowed to stand to room temperature; • 1.3.5: 10 μl of ADP-GLO™ reagent was added to each well, centrifuged at 5000 rpm and 18° C. for 18 minutes, and shaken on a plate shaker at 25° C. for 40 minutes, and then the reaction was stopped; • 1.3.6: 20 μl of kinase detection reagent was added to each well, centrifuged at 5000 rpm and 18° C. for 10 minutes, and shaken on a plate shaker at 25° C. for 30 minutes; and • 1.3.7: M1000pro MICROPLATE READER was used to read […] values.
The inhibition rate of each compound at each concentration point was calculated by the formula as follows and curve fitting was performed by GraphPad Prism 5 software to obtain the IC50 value.

[1] = test system: U87-luc orthotopic brain xenograft; assay: Pharmacodynamic study in U87-luc orthotopic brain xenograft model, median survival; assay type: in vivo, BALB/c nude mice; conditions: for Medium survival: survival time range in brackets
Description: Pharmacodynamic study of the compound 17 of this disclosure and the combination of compound 17 of the disclosure and temozolomide in a U87-luc orthotopic brain xenograft model
Adult female BALB/c nude mice were used as test animals. A U87-luc orthotopic brain xenograft model was used to study the effect of representative compound 17 of this disclosure on the median survival of female BALB/c nude mice after intragastric administration.
Healthy adult female BALB/c nude mice, 8 mice/group, 6-8 weeks old, weighing 18-22 g, purchased from Shanghai SIPPR-BK Laboratory Animal Co., Ltd., Animal Production License No: 2008001658261; 2008001658263. • 7.2.3 Preparation of the test compounds
An appropriate amount of compound 17 was weighed, and added with 0.1% hydroxyethyl cellulose/0.5% TWEEN®80 as vehicle to 0.3125 mg/ml;
An appropriate amount of Temozolomide sample was weighed, and added with 0.1% CMC-Na+0.25% TWEEN®80 as vehicle to 0.3 mg/ml.
Adult female BALB/c nude mice were anesthetized by intraperitoneal injection of sodium pentobarbital at a dose of 80 mg/kg. To relieve pain, animals were injected subcutaneously with buprenorphine at the time points 30 minutes before operation and 6 hours after operation at a dose of 0.1 mg/kg. Animals were observed after anesthesia until all animals had awakened.
The anesthetized animals were properly fixed, the animals' head skin was sterilized with 70% ethanol, and an approximately 10 mm long incision was made on the right side of the midline from the forehead to the ear line. 3×10^5 U87-luc cells (3 μl, mixture of PBS and Matrigel at a ratio of 4:1) were inoculated at the right frontal lobe that is 2 mm away from the right side of the bregma and is 1 mm away from the front side of the coronal suture in each animal. The incision was sutured with a No. 6 suture, and sterilized with polyvinylpyrrolidone. Animals are kept warm until anabiosis. Six days after tumor cell transplantation, tumor animals were grouped by stratified randomization based on […] signal intensity values, and the average bioluminescence reached 2.812E+07 photons/sec when the groups were administered in groups. Different animal groups were administered at different doses for a total of 35 days.

Sequence of CDK4/CyclinE1 (P11802 2-303 limits assumed): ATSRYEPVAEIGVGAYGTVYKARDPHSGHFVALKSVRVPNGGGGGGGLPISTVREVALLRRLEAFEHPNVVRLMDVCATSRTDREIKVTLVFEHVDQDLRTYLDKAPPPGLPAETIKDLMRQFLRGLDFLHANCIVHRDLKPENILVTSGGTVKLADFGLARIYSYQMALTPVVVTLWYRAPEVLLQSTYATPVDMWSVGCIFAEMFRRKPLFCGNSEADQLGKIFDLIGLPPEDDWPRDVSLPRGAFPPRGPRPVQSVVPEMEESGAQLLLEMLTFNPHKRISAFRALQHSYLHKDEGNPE

Structure (SMILES) | pIC50 (CDK4/CyclinE1) | Medium survival ([1]; 3.125 mg/kg QD intragastric) | Medium survival ([1]; 6.25 mg/kg QD intragastric) | Medium survival ([1]; 12.5 mg/kg QD intragastric) | Medium survival ([1]; 25 mg/kg QD intragastric) | Medium survival ([1]; 50 mg/kg QD intragastric) | Effect on median survival, in words ([1]; dose-dependent)
CC1=Nc2c(F)cc(-c3nc(Nc4ccc(C5CCN(C)CC5)cn4)ncc3F)cc2C12CCCC2 [Example 17, 5-Fluoro-4-(7′-fluoro-2′-methylspiro[cyclopentane-1,3′-indol]-5′-yl)-N-(5-(1-methylpiperidin-4-yl)pyridin-2-yl)pyrimidine-2-amino] | 8.58 | 38.5(26-59) days | 43.5(31-48) days | 44.5(31-114) days | 61(41-76) days | 78.5(63->114) days | significantly prolong the median survival
CCN1CCC(c2ccc(Nc3ncc(F)c(-c4cc(F)c5c(c4)C4(CCCC4)C(C)=N5)n3)nc2)CC1 [Example 12, N-(5-(1-ethylpiperidin-4-yl)pyridin-2-yl)-5-fluoro-4-(7′-fluoro-2′-methylspiro [cyclopentane-1,3′-indol]-5′-yl)pyrimidine-2-amino] | 8.35 |  |  |  |  |  | 
